Measurements reported in patent publication US8076514B2, “Phenyl compounds and their use in the treatment of Type II diabetes” (Eli Lilly and Company, priority 2005, dated 2011).
Where a name gives a salt, the structure may show the parent alone.

Molecular target: T1, human recombinant DPIV enzyme (Homo sapiens, UniProt P27487)
T1 construct: Secreted DPIV (lacking membrane anchor) is enriched from HEK293 cell culture supernatant; made in house; host or cells: HEK293
Experiment: Human Recombinant DPIV Activity Assay (fluorometric end point, Gly-Pro-AMC substrate)
Format: biochemical
Details: enriched human recombinant DPIV, Gly-Pro-AMC 0.02 mM, 12 points concentration response curve
Procedure: Human Recombinant DPIV Activity Assay The DPIV assay uses a fluorometric end point assay (excitation 355 nm; emission 460 nm), enriched human recombinant DPIV enzyme (21.3 μU/μl), and Gly-Pro-AMC (Bachem I-1225) as substrate (0.02 mM). Secreted DPIV (lacking membrane anchor) is enriched from HEK293 cell culture supernatant by ultrafiltration, ultra-centrifugation, and size-exclusion chromatography. IC50 values of the compounds are calculated based on a 12 points concentration response curve. Each concentration is measured in duplicate. The assay is validated by plate variability and conformity, inter-plate variability, signal window, and minimum significant ration of IC50. A MSR is calculated based on a test/retest analysis and a retrospective analysis. The MSR value is 1.8.

T1 sequence (P27487 29-766 limits assumed): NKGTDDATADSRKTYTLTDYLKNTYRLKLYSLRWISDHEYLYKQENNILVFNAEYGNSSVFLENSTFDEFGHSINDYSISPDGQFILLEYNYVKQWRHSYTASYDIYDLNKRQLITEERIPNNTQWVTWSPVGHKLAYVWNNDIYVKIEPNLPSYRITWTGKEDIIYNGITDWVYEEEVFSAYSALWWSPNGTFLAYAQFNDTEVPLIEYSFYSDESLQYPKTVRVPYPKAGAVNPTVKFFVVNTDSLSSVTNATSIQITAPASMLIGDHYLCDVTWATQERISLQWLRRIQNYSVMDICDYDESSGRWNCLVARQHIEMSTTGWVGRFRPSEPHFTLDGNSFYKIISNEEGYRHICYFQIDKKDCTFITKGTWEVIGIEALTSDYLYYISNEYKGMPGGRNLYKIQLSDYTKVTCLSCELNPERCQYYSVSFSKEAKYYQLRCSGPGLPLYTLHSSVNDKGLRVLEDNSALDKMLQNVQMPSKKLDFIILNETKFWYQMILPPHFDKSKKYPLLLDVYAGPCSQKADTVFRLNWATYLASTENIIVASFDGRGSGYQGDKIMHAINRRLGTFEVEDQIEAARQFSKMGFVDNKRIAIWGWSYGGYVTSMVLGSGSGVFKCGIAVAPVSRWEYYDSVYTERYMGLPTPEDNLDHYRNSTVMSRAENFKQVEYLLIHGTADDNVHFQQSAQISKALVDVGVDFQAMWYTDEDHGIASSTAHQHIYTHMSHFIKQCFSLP

IC50 [nM]	Structure (SMILES)
98	COc1ccc(C(=O)NC(C)(C)C)c(C[C@H](O)[C@H](N)Cc2ccccc2F)c1 [Example 6, 2-[(2S,3R)-3-Amino-4-(2-fluoro-phenyl)-2-hydroxy-butyl]-N-tert-butyl-4-methoxy-benzamide Hydrochloride]
134	CC(C)(C)NC(=O)c1cc(Cl)ccc1C[C@H](O)[C@H](N)Cc1ccccc1F [Example 7, 2-[(2S,3R)-3-Amino-4-(2-fluoro-phenyl)-2-hydroxy-butyl]-N-tert-butyl-5-chloro-benzamide Hydrochloride]
